14 compounds from patent publication US12583851B2, “Heteroaryl-substituted pyrazine derivatives as pesticides” (Elanco Animal Health GmbH, priority 2019, dated 2026) can be followed below.

SMILES strings stand for the structures.

What all share (format): in vivo
Assay [1] relates to larvae of the southern green stink bug (Nezara viridula). Description: Nezara viridula spray test. Conditions: 96 h, 500 g/ha, barley plants, after 4 days. On the procedure:
Nezara viridula—Spray Test
Solvent: 78.0 parts by weight of acetone • • 1.5 parts by weight of dimethylformamide
Emulsifier: alkylarylpolyglycol ether
To produce a suitable preparation of active compound, 1 part by weight of active compound is mixed with the stated amount of solvent, and the concentrate is diluted with water, containing an emulsifier concentration of 1000 ppm, to the desired concentration. Further test concentrations are prepared by dilution with emulsifier containing water.
Barley plants (Hordeum vulgare) infested with larvae of the southern green stink bug (Nezara viridula) are sprayed with a test solution containing the desired concentration of the active ingredient.
After 4 days mortality in % is determined. 100% means all the stink bugs have been killed; 0% means none of the stink bugs have been killed.

The subject of assay [2] is fall armyworm larvae (Spodoptera frugiperda). Description: Spodoptera frugiperda spray test. Conditions: 168 h, maize leaf sections, after 7 days. In outline:
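Compound dissolved in acetone/dimethylformamide, diluted in water containing 1000 ppm alkylarylpolyglycol ether emulsifier and sprayed onto maize leaf sections. Dried sections were infested with larvae; % mortality scored after 7 days (100% = all caterpillars killed, 0% = none).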

The subject of assay [3] is Rhipicephalus (Boophilus) microplus larvae (strain Parkhurst, resistant against synthetic pyrethroids). Description: Rhipicephalus (Boophilus) microplus in-vitro contact test, larval cattle tick. Conditions: after 48 hours, read-out: efficacy (larvae dead or moribund); for pest or weed control at 1 µg/cm2, 100 g/ha: 1 μg/cm^2 (=100 g/ha); for pest or weed control at 5 µg/cm2, 500 g/ha: 5 μg/cm^2 (=500 g/ha). In outline: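 Acetone solutions were coated onto glass tube walls (900 ppm gives 5 μg/cm²); after drying, 20–50 pyrethroid-resistant Parkhurst larvae added and held at 27 °C, 85% RH. At 48 h, efficacy as % larvae dead or moribund, judged by loss of negative geotaxis.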

Assay [4] concerns adult unfed cat fleas (Ctenocephalides felis). Description: Ctenocephalides felis oral test. Conditions: 48 h, 100 ppm in citrated cattle blood, after 2 days. On the procedure: Ctenocephalides felis—Oral Test
(§1) Solvent: dimethyl sulfoxide
To produce a suitable preparation of active compound, 10 mg of active compound are dissolved in 0.5 mL solvent, and the concentrate is diluted with citrated cattle blood to the desired concentration.
Approximately 20 adult unfed cat fleas (Ctenocephalides felis) are placed in a flea chamber whose top and bottom is covered with gauze. A chamber whose bottom is sealed with parafilm, is filled with the blood-compound solution and placed on top of the flea chamber, so that the fleas can suck the blood. The blood chamber is heated to 37° C. whereas the flea chamber is kept at room temperature.
After 2 days mortality in % is determined. 100% means all the fleas have been killed; 0% means none of the fleas have been killed.

The subject of assay [5] is larvae of the banded cucumber beetle (Diabrotica balteata). Description: Diabrotica balteata spray test. Conditions: 168 h, after 7 days, read-out: efficacy (seedling growth); for pest or weed control at 32 µg/disc, 100 g/ha: 100 g/ha (=32 μg/well); for pest or weed control at 6.4 µg/disc, 20 g/ha: 20 g/ha (=6.4 μg/well). In outline:
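Germinated wheat seedlings (5 per well, on agar) sprayed with compound in acetone/DMF with emulsifier-containing water, then infested with 10–20 Diabrotica balteata larvae. Efficacy (%) scored after 7 days from seedling growth: 100% = growth as untreated uninfested control, 0% = no seedlings grown.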

In assay [6] the test system is adult engorged female ticks (Rhipicephalus microplus). Description: Rhipicephalus (Boophilus) microplus injection test. Conditions: 168 h, 4 μg/animal, egg deposition after 7 days, read-out: efficacy (infertile eggs). On the procedure: Rhipicephalus (Boophilus) microplus—Injection Test
as §1
To produce a suitable preparation of active compound, 10 mg of active compound are dissolved in 0.5 mL solvent, and the concentrate is diluted with solvent to the desired concentration.
Five adult engorged female ticks (Rhipicephalus microplus) are injected with 1 μL compound solution into the abdomen. The ticks are transferred into replica plates and incubated in a climate chamber.
After 7 days egg deposition of fertile eggs is monitored. Eggs where fertility is not visible are stored in a climate chamber till hatching after about 42 days. An efficacy of 100% means all eggs are infertile; 0% means all eggs are fertile.

Assay [7] concerns adult brown dog ticks (Rhipicephalus sanguineus). Description: Rhipicephalus sanguineus in-vitro contact test, adult brown dog ticks. The settings on record: 48 h, 5 μg/cm^2 (=500 g/ha), after 48 hours, read-out: efficacy (ticks dead or moribund). The method, then:
Rhipicephalus sanguineus—In-Vitro Contact Tests with Adult Brown Dog Ticks
9 mg compound is solved in 1 mL acetone and diluted with acetone to the desired concentration. […] the test solution is filled in 25 mL glass test tubes and homogeneously distributed on the inner walls by rotation and tilting on a shaking device (2 h at 30 rpm). With a compound concentration of 900 ppm, an inner surface of 44.7 cm^2 and a homogeneous distribution, a dose of 5 μg/cm^2 is achieved.
After the solvent has evaporated, each test tube is filled with 5-10 adult brown dog ticks (Rhipicephalus sanguineus), closed with a perforated lid and incubated in a lying position at room temperature and relative humidity. After 48 hours efficacy is determined. The ticks are patted on the ground of the tubes and are incubated on a heating plate at 45-50° C. for at most 5 minutes Immotile or uncoordinated moving ticks, which are not able to escape the heat by climbing upwards, are marked as dead or moribund.
An efficacy of 100% means all ticks are dead or moribund; 0% means no ticks are dead or moribund.

For assay [8], the system named is adult cat fleas (Ctenocephalides felis). Description: Ctenocephalides felis in-vitro contact test, adult cat flea. The settings on record: after 48 hours, read-out: efficacy (fleas dead or moribund). The method, then: Ctenocephalides felis—In-Vitro Contact Tests Adult Cat Flea
9 mg compound is solved in 1 ml acetone and diluted with acetone to the desired concentration. 250 μL of the test solution is filled in 25 mL glass test tubes and homogeneously distributed on the inner walls by rotation and tilting on a shaking device (2 h at 30 rpm). With a compound concentration of 900 ppm, an inner surface of 44.7 cm^2 and a homogeneous distribution, a dose of 5 μg/cm^2 is achieved.
After the solvent has evaporated, each test tube is filled with 5-10 adult cat fleas (Ctenocephalides felis), closed with a perforated lid and incubated in a lying position at room temperature and relative humidity. After 48 hours efficacy is determined. The fleas are patted on the ground of the tubes and are incubated on a heating plate at 45-50° C. for at most 5 minutes Immotile or uncoordinated moving fleas, which are not able to escape the heat by climbing upwards, are marked as dead or moribund.
An efficacy of 100% means all fleas are dead or moribund; 0% means no fleas are dead or moribund.

Regarding `CC(NC(=O)c1cc(Cl)cc(S(C)(=O)=O)c1)c1nccnc1-n1cc(Cl)cn1` (racemic) [Example I-99, (rac)-3-Chloro-N-{1-[3-(4-chloro-1H-pyrazol-1-yl)pyrazin-2-yl]ethyl}-5-(methanesulfonyl)benzamide], the mortality at 500 g/ha in assay [1] turned out to be 100%.

As for `CC(NC(=O)c1cc(Cl)cc(C(F)(F)F)c1)c1nccnc1-c1ccccn1` (racemic) [Example I-1, (rac)-3-Chloro-N-{1-[3-(pyridin-2-yl)pyrazin-2-yl]ethyl}-5-(trifluoromethyl)benzamide], in assay [2], the mortality at 100 g/ha was determined as 100%. The pest or weed control at 1 µg/cm2, 100 g/ha in assay [3] was found to be 100%. The same compound had a mortality at 100 ppm in assay [4] of 90%. In assay [5], the pest or weed control at 32 µg/disc, 100 g/ha came out at 100%.

For the compound `CC(NC(=O)c1cc(Cl)cc(C(F)(F)F)c1)c1nccnc1-c1nccs1` (racemic) [Example I-3, (rac)-3-Chloro-N-(1-(3-(thiazol-2-yl)pyrazin-2-yl)ethyl)-5-(trifluoromethyl)benzamide], in assay [6], the pest or weed control at 0.004 mg stood at 100%. This compound returned a mortality at 100 ppm in assay [4] of 90%. Besides, in assay [5], the pest or weed control at 6.4 µg/disc, 20 g/ha turned out to be 80% and the pest or weed control at 32 µg/disc, 100 g/ha turned out to be 100%.

As for `CC(NC(=O)c1cc(Br)cc(C#N)c1)c1nccnc1-c1ccccn1` (centres unmarked) [Example I-16], the pest or weed control at 5 µg/cm2, 500 g/ha in assay [7] was 80%. Further, the mortality at 100 ppm in assay [4] is 100%. Moreover, the pest or weed control at 32 µg/disc, 100 g/ha in assay [5] came out at 100%.

`CC(NC(=O)c1cc(Cl)cc(C#N)c1)c1nccnc1-c1ccc(Cl)cn1` (centres unmarked) [Example I-23] had a mortality at 100 g/ha in assay [2] of 100%. The pest or weed control at 0.004 mg in assay [6] is 100%. In assay [4], the mortality at 100 ppm is 100%.

For the compound `CC(NC(=O)c1cc(C#N)cc(C(F)(F)F)c1)c1nccnc1-c1ccc(Cl)cn1` (centres unmarked) [Example I-25], the mortality at 100 g/ha in assay [2] was 100%. Besides, in assay [6], the pest or weed control at 0.004 mg was 80%. This compound showed a mortality at 100 ppm in assay [4] of 90%. Also, in assay [5], the pest or weed control at 6.4 µg/disc, 20 g/ha worked out at 100% and the pest or weed control at 32 µg/disc, 100 g/ha worked out at 100%.

On to `CC(NC(=O)c1cc(C(F)(F)F)cc(C(F)(F)F)c1)c1nccnc1-c1nccs1` (racemic) [Example I-5, (rac)-N-(1-(3-(Thiazol-2-yl)pyrazin-2-yl)ethyl)-3,5-bis(trifluoromethyl)benzamide], for which the pest or weed control at 0.004 mg in assay [6] was found to be 80%. For the same compound, in assay [3], the pest or weed control at 1 µg/cm2, 100 g/ha came out at 100% and the pest or weed control at 5 µg/cm2, 500 g/ha came to 100%. In assay [4], the mortality at 100 ppm came out at 90%. In assay [5], the pest or weed control at 32 µg/disc, 100 g/ha stood at 80%.

As to `CC(NC(=O)c1cc(C#N)cc(C(F)(F)F)c1)c1nccnc1-c1ccccn1` (centres unmarked) [Example I-15], the pest or weed control at 0.004 mg in assay [6] is 80%. Also, in assay [3], the pest or weed control at 1 µg/cm2, 100 g/ha was 80% and the pest or weed control at 5 µg/cm2, 500 g/ha is 80%. For the same compound, the mortality at 100 ppm in assay [4] was 100%. For the same compound, in assay [5], the pest or weed control at 32 µg/disc, 100 g/ha was determined as 100%.

`CCN(C)C(=O)c1cnc(-c2ncc(C)nc2[C@H](C)NC(=O)c2cc(C(F)(F)F)cc(C(F)(F)F)c2)s1` [Example I-155, (+)-2-(3-{(1S)-1-[3,5-Bis(trifluoromethyl)benzamido]ethyl}-5-methylpyrazin-2-yl)-N-ethyl-N-methyl-1,3-thiazole-5-carboxamide]: in assay [2], the mortality at 100 g/ha was determined as 100%. Besides, the mortality at 500 g/ha in assay [1] amounted to 100%. Besides, in assay [5], the pest or weed control at 6.4 µg/disc, 20 g/ha was 100% and the pest or weed control at 32 µg/disc, 100 g/ha was found to be 100%.

In turn, `CC(NC(=O)c1cc(C(F)(F)F)cc(C(F)(F)F)c1)c1nccnc1-c1ncc(C(=O)N(C)CC(F)(F)F)s1` (racemic) [Example I-65, (rac)-2-(3-{1-[3,5-Bis(trifluoromethyl)benzamido]ethyl}pyrazin-2-yl)-N-methyl-N-(2,2,2-trifluoroethyl)-1,3-thiazole-5-carboxamide] showed a mortality at 100 g/ha in assay [2] of 100%. In addition, the pest or weed control at 5 µg/cm2, 500 g/ha in assay [7] was found to be 80%; in assay [8] (5 μg/cm^2 (=500 g/ha)), 100%; in assay [3], 100%. Further, the pest or weed control at 1 µg/cm2, 100 g/ha in assay [8] (1 μg/cm^2 (=100 g/ha)) and in assay [3] was 100% each time. For the same compound, the pest or weed control at 0.004 mg in assay [6] worked out at 80%. This compound had a mortality at 100 ppm in assay [4] of 80%.

Turning to `CC(NC(=O)c1cc(Cl)cc(C(F)(F)F)c1)c1nccnc1-c1ccc(Cl)cn1` (centres unmarked) [Example I-24], the mortality at 100 g/ha in assay [2] turned out to be 100%. Moreover, the pest or weed control at 0.004 mg in assay [6] was determined as 100%. Besides, in assay [3], the pest or weed control at 1 µg/cm2, 100 g/ha is 90% and the pest or weed control at 5 µg/cm2, 500 g/ha worked out at 90%. In addition, the mortality at 100 ppm in assay [4] came out at 100%. Moreover, in assay [5], the pest or weed control at 6.4 µg/disc, 20 g/ha came to 100% and the pest or weed control at 32 µg/disc, 100 g/ha was 100%.

With `CC(NC(=O)c1cc(Cl)cc(Br)c1)c1nccnc1-c1ccccn1` (centres unmarked) [Example I-14], the pest or weed control at 0.004 mg in assay [6] came to 80%. Further, in assay [3], the pest or weed control at 1 µg/cm2, 100 g/ha amounted to 90% and the pest or weed control at 5 µg/cm2, 500 g/ha was found to be 80%. The mortality at 100 ppm in assay [4] is 100%. Also, in assay [5], the pest or weed control at 6.4 µg/disc, 20 g/ha came out at 80% and the pest or weed control at 32 µg/disc, 100 g/ha was determined as 80%.

For the compound `CC(NC(=O)c1cncc(C(F)(F)F)c1)c1nccnc1-c1nccs1` (racemic) [Example I-2, (rac)-N-(1-(3-(Thiazol-2-yl)pyrazin-2-yl)ethyl)-5-(trifluoromethyl)nicotinamide], the pest or weed control at 5 µg/cm2, 500 g/ha in assay [7] is 100%. In addition, the pest or weed control at 0.004 mg in assay [6] worked out at 100%. The compound also gave a mortality at 100 ppm in assay [4] of 90%.

On to `CC(NC(=O)c1cc(C(F)(F)F)cc(C(F)(F)F)c1)c1nccnc1-c1ccccn1` (centres unmarked) [Example I-13], for which the mortality at 100 g/ha in assay [2] is 100%. For the same compound, the pest or weed control at 0.004 mg in assay [6] is 80%. Also, in assay [3], the pest or weed control at 1 µg/cm2, 100 g/ha amounted to 100% and the pest or weed control at 5 µg/cm2, 500 g/ha came to 100%. For the same compound, in assay [4], the mortality at 100 ppm was determined as 90%. In assay [5], the pest or weed control at 6.4 µg/disc, 20 g/ha was found to be 100% and the pest or weed control at 32 µg/disc, 100 g/ha worked out at 80%.
